This is an account of results in patent publication US20140023611A1 (priority 2010, published 2014).

One data set concerns the target T1, rat NaP2b (SLC34A2) (Rattus norvegicus, UniProt Q9JJ09).
T1 construct: host or cells: HEK293
T1 sequence (Q9JJ09 1-695): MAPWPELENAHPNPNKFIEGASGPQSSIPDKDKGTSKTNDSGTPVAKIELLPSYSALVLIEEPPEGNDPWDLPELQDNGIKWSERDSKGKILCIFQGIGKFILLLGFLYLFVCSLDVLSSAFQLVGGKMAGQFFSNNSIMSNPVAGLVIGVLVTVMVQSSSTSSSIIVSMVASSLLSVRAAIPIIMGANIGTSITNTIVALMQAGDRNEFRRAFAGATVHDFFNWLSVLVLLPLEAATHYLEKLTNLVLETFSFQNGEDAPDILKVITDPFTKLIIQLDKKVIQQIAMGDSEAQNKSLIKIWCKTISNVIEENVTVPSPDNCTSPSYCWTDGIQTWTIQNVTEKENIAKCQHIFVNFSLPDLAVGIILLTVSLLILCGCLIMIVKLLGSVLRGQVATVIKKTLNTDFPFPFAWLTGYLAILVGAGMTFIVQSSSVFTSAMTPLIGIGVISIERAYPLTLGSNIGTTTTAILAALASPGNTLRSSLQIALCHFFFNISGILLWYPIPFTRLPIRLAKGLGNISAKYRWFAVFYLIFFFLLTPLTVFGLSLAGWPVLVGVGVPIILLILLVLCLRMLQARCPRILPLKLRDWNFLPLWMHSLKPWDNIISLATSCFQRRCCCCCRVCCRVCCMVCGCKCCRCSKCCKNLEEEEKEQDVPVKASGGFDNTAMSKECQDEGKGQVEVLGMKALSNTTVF
In words: Inhibition of NaP2b-mediated Pi (33P) uptake in transfected HEK293 cells, rat NaP2b. The class given is cell-based. The conditions noted are these: 33P Pi uptake, 0.1 mM phosphate, value given as pIC50 range. In a few lines: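 The cells transiently expressed NaP2b after Lipofectamine transfection. Each compound was run in duplicate over twelve concentrations, 0.1 nM–30 uM.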

The target of a further data set is T2, human NaP2b (SLC34A2) (Homo sapiens, UniProt O95436).
T2 construct: host or cells: HEK293
T2 sequence (O95436 1-690): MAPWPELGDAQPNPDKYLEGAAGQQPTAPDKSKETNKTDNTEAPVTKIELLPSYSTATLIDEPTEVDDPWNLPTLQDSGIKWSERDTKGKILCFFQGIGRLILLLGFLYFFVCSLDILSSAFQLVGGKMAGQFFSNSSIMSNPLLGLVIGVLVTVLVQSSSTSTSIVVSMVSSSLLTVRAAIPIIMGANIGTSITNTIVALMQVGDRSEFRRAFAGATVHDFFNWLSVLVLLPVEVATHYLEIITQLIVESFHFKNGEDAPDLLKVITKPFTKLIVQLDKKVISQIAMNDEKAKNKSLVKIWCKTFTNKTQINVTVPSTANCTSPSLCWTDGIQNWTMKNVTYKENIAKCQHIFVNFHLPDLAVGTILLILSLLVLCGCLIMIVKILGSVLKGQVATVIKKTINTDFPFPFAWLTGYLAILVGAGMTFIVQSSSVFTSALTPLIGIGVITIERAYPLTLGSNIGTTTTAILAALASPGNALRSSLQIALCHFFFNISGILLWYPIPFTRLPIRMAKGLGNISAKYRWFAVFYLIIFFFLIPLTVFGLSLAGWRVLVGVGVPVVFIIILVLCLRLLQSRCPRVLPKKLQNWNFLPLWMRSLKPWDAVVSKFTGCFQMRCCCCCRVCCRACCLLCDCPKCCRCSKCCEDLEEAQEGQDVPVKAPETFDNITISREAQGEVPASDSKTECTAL
In words: Inhibition of NaP2b-mediated Pi (33P) uptake in transfected HEK293 cells, human NaP2b. The conditions noted are these: read-out: pIC50 range for human NaP2b (converted). Type of data set: cell-based. In a few lines:
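Uptake of 33P-phosphate (100 uM KH2PO4 carrier, sodium vs choline buffer, pH 7.4) measured after 3-30 min at room temperature, with test compound at twelve concentrations from 0.1 nM to 30 uM in duplicate. Cells were HEK293 transfected with mutated human NaP2b (Thr insertion after 37, N39D) and treated with a PiT-silencing agent. pIC50 values from scintillation counts.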

Data set [1] in a line: Stability of compounds in simulated gastric fluid (SGF). Type of data set: in vitro ADME. The conditions noted are these: simulated gastric fluid (3 mg/mL pepsin), incubation time 6 hr, relative to t=0. Summed up:
(§1)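 Compounds at […] were incubated 3 or 6 hr in USP simulated gastric fluid with 3 mg/mL pepsin or simulated intestinal fluid with 3 mg/mL pancreatin. Remaining compound was quantified by HPLC-UV or HPLC-MS peak area % and reported as percent of the t=0 level in the same medium.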

Data set [2] is described as follows: Stability of compounds in simulated intestinal fluid (SIF). Type of data set: in vitro ADME. The conditions noted are these: simulated intestinal fluid (3 mg/mL pancreatin), incubation time 6 hr, relative to t=0. In a few lines:
as §1

Data set [3] is described as follows: Determination of compound Cmax and AUC after oral gavage (plasma LC-MS/MS). Type of data set: in vivo, Sprague-Dawley rats. The following applies: Sprague-Dawley, rat, plasma, po, Structure (I) examples, Table 15, actual oral dose 3-15 mg/kg, plasma 0.5-4 h. Summed up:
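Plasma exposure measured by LC-MS/MS after acetonitrile precipitation with internal standard, quantified against a standard curve made in plasma. Compound given orally by gavage to Sprague-Dawley rats at nominal 2.5 or 10 mg/kg, with K2EDTA plasma sampled at 0.5, 1, 2 and 4 h.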

Usually AUC stands for concentration integrated over time. A higher AUC goes with more exposure. One may read the Cmax as the peak of the concentration-time curve. At rat NaP2b (SLC34A2), `O=C(O)c1cccc(SCc2cccc(C(=O)Nc3ccc(Cl)cc3-c3cc(C(=O)NCc4cccc(C(F)(F)F)c4)ccn3)c2)c1` [Example 8.25, 3-(3-(4-chloro-2-(4-(3-(trifluoromethyl)benzylcarbamoyl)pyridin-2-yl)phenylcarbamoyl)benzylthio)benzoic acid] showed an IC50 of 1 to 7.94 µM. Moreover, the IC50 at human NaP2b (SLC34A2) was less than 1 µM. In addition, the “% remaining, SGF” value in data set [1] is greater than 80%. Besides, the “% remaining, SIF” value in data set [2] was greater than 80%. In data set [3], this compound showed an AUC greater than 50 ng·h/mL and a Cmax of less than 30 ng/mL.
Compound `CN(CCCN1CCOCC1)C(=O)c1cccc(C(=O)Nc2ccc(N3CCCCC3)cc2-c2cc(C(=O)N[C@H]3CCCc4ccccc43)ccn2)c1` [Example 126, (S)—N1-methyl-N1-(3-morpholinopropyl)-N3-(4-(piperidin-1-yl)-2-(4-(1,2,3,4-tetrahydronaphthalen-1-ylcarbamoyl)pyridin-2-yl)phenyl)isophthalamide] had an IC50 at rat NaP2b (SLC34A2) of less than 1 µM. Besides, at human NaP2b (SLC34A2), the IC50 was 1 to 7.94 µM. In data set [1], the “% remaining, SGF” value is reported as greater than 80%. Also, the “% remaining, SIF” value in data set [2] is listed as greater than 80%. Further, in data set [3], the AUC was less than 30 ng·h/mL and the Cmax was less than 10 ng/mL.
Regarding `CCN(CC)c1ccc(NC(=O)c2cccc(CSCCOCCOCCOCCOCCC(=O)NC(CO)(CO)CO)c2)c(-c2cc(C(=O)N[C@H]3CCCc4ccccc43)ccn2)c1` [Example 158, (S)-2-(5-(diethylamino)-2-(3-(20-hydroxy-19,19-bis(hydroxymethyl)-17-oxo-5,8,11,14-tetraoxa-2-thia-18-azaicosyl)benzamido)phenyl)-N-(1,2,3,4-tetrahydronaphthalen-1-yl)isonicotinamide], at rat NaP2b (SLC34A2), the IC50 was less than 1 µM. At human NaP2b (SLC34A2), the IC50 was less than 1 µM. In addition, in data set [1], the “% remaining, SGF” value is greater than 80%. In data set [2], the “% remaining, SIF” value is reported as 20-40%. In data set [3], this compound displayed an AUC of less than 10 ng·h/mL and a Cmax of less than 10 ng/mL.
As to `CCN(CC)c1ccc(NC(=O)c2cccc(CSCCOCCOCCOCCOCCC(=O)N(CCO)CCO)c2)c(-c2cc(C(=O)N[C@H]3CCCc4ccccc43)ccn2)c1` [Example 160, (S)-2-(5-(diethylamino)-2-(3-(20-hydroxy-18-(2-hydroxyethyl)-17-oxo-5,8,11,14-tetraoxa-2-thia-18-azaicosyl)benzamido)phenyl)-N-(1,2,3,4-tetrahydronaphthalen-1-yl)isonicotinamide], the IC50 against rat NaP2b (SLC34A2) and on human NaP2b (SLC34A2) was less than 1 µM throughout. Moreover, in data set [1], the “% remaining, SGF” value is reported as greater than 80%. Also, the “% remaining, SIF” value in data set [2] was 40-60%. For the same compound, in data set [3], the AUC is less than 10 ng·h/mL. In data set [3], the Cmax was less than 10 ng/mL.
Turning to `CCN(CC)c1ccc(NC(=O)c2cccc(COCCOCCOCCOCCOCCOCCO)c2)c(-c2cc(C(=O)NCc3cccc(C(F)(F)F)c3)ccn2)c1` [Example 168, 2-(5-(diethylamino)-2-(3-(19-hydroxy-2,5,8,11,14,17-hexaoxanonadecyl)benzamido)phenyl)-N-(3-(trifluoromethyl)benzyl)isonicotinamide], at rat NaP2b (SLC34A2), the IC50 was less than 1 µM. The IC50 on human NaP2b (SLC34A2) was less than 1 µM. Moreover, the “% remaining, SGF” value in data set [1] is recorded as greater than 80%. For the same compound, the “% remaining, SIF” value in data set [2] was greater than 80%. In data set [3], the AUC was less than 30 ng·h/mL and the Cmax is less than 10 ng/mL.
Take `CCN(CC)c1ccc(NC(=O)c2cccc(COCCOCCOCCOCCOCCOCCOC(=O)N3CCC(CCOCCO)CC3)c2)c(-c2cc(C(=O)NCc3cccc(C(F)(F)F)c3)ccn2)c1` [Example 171, 1-(3-(4-(diethylamino)-2-(4-(3-(trifluoromethyl)benzylcarbamoyl)pyridin-2-yl)phenylcarbamoyl)phenyl)-2,5,8,11,14,17-hexaoxanonadecan-19-yl 4-(2-(2-hydroxyethoxy)ethyl)piperidine-1-carboxylate]: the figures for the IC50 on rat NaP2b (SLC34A2) and on human NaP2b (SLC34A2) were 1 to 7.94 µM and less than 1 µM, respectively. In data set [1], the “% remaining, SGF” value was greater than 80%. Also, in data set [2], the “% remaining, SIF” value is greater than 80%.
Take `CCN(CC)c1ccc(NC(=O)c2cccc(COCCOCCOCCOCCOCCOCCOC(=O)N(CCO)CCO)c2)c(-c2cc(C(=O)NCc3cccc(C(F)(F)F)c3)ccn2)c1` [Example 172, 1-(3-(4-(diethylamino)-2-(4-(3-(trifluoromethyl)benzylcarbamoyl)pyridin-2-yl)phenylcarbamoyl)phenyl)-2,5,8,11,14,17-hexaoxanonadecan-19-yl bis(2-hydroxyethyl)carbamate]: the IC50 against rat NaP2b (SLC34A2) is 1 to 7.94 µM; at human NaP2b (SLC34A2) it was less than 1 µM. The “% remaining, SGF” value in data set [1] is recorded as greater than 80%. For the same compound, in data set [2], the “% remaining, SIF” value is listed as greater than 80%.
`COCCOCCOCCOCCOCCOCCOCCOCCOCc1cccc(C(=O)Nc2ccc(OC3CCC3)cc2-c2cc(C(=O)NCc3cccc(C(F)(F)F)c3)ccn2)c1` [Example 202, 2-(2-(3-(2,5,8,11,14,17,20,23,26-nonaoxaheptacosyl)benzamido)-5-cyclobutoxyphenyl)-N-(3-(trifluoromethyl)benzyl)isonicotinamide]: the IC50 against rat NaP2b (SLC34A2) was 1 to 7.94 µM; at human NaP2b (SLC34A2), less than 1 µM. The “% remaining, SGF” value in data set [1] is greater than 80%. Moreover, the “% remaining, SIF” value in data set [2] is recorded as greater than 80%.
In the case of `COCCOCCOCCOCCOCCOCCOCCOCCOCc1cccc(C(=O)Nc2ccc(OC3CCC3)cc2-c2cc(C(=O)N[C@H]3CCCc4ccccc43)ccn2)c1` [Example 205, (S)-2-(2-(3-(2,5,8,11,14,17,20,23,26-nonaoxaheptacosyl)benzamido)-5-cyclobutoxyphenyl)-N-(1,2,3,4-tetrahydronaphthalen-1-yl)isonicotinamide], the IC50 at rat NaP2b (SLC34A2) and at human NaP2b (SLC34A2) was less than 1 µM throughout. For the same compound, the “% remaining, SGF” value in data set [1] was greater than 80%. In data set [2], the “% remaining, SIF” value was greater than 80%.
On to `COCCOCCOCCOCCOCCOCCOCCOCCNC(=O)CCOCCOCCOCCOCCCc1cccc(C(=O)Nc2ccc(N3CCCCC3)cc2-c2cc(C(=O)NCc3cccc(C(F)(F)F)c3)ccn2)c1` [Example 275], for which the IC50 against rat NaP2b (SLC34A2) and at human NaP2b (SLC34A2) was 1 to 7.94 µM each time. In addition, the “% remaining, SGF” value in data set [1] is on record as greater than 80%. Further, the “% remaining, SIF” value in data set [2] is given as greater than 80%.
In the case of `CCN(CC)c1ccc(NC(=O)c2cccc(C(=O)N(C)CCN(CCOC)CCOCCOCCOCCOCCOCCOCCOC)c2)c(-c2cc(C(=O)N[C@H]3CCCc4ccccc43)ccn2)c1` [Example 328, (S)—N1-(4-(diethylamino)-2-(4-(1,2,3,4-tetrahydronaphthalen-1-ylcarbamoyl)pyridin-2-yl)phenyl)-N3-(23-(2-methoxyethyl)-2,5,8,11,14,17,20-heptaoxa-23-azapentacosan-25-yl)-N3-methylisophthalamide], the IC50 against rat NaP2b (SLC34A2) and on human NaP2b (SLC34A2) was 1 to 7.94 µM throughout. Moreover, the “% remaining, SGF” value in data set [1] is greater than 80%. Moreover, the “% remaining, SIF” value in data set [2] is greater than 80%.
